The values that follow come from ChEMBL document CHEMBL1921700, “Synthesis of novel 3-carboxamide-benzocoumarin derivatives as orally active antithrombotic agents” (Bioorg Med Chem Lett, 2011).

The subject of data set [1] is Mus musculus. Briefly: Ex vivo anticoagulant activity in mouse assessed as prothrombin time in plasma at 30 uM/kg, po after for 3 days. It is filed as functional.
Data set [2] has as its system Mus musculus. Briefly: Ex vivo antithrombotic activity in mouse assessed as protection against collagen and adrenaline-induced hind limb paralysis or death at 30 uM/kg, po administered 60 mins prior to thrombotic challenge after 1 hr. It is filed as functional, Hindlimb.
Data set [3] has as its system Mus musculus. Nature of the data set: Ex vivo antithrombotic activity in mouse assessed as protection against collagen and adrenaline-induced hind limb paralysis or death at 30 uM/kg, po administered 60 mins prior to thrombotic challenge after 3 days. It is filed as functional, Hindlimb.
Data set [4] deals with Mus musculus. Briefly: Toxicity in mouse assessed as increase in bleeding time at 30 uM/kg, po administered 60 mins prior to tail incision after 3 days relative to aspirin. The data set is classed as organism-based. Conditions: in vivo.
Data set [5] concerns Mus musculus. Briefly: Toxicity in mouse assessed as increase in bleeding time at 30 uM/kg, po administered 60 mins prior to tail incision after 1 hr relative to aspirin. It is filed as organism-based. Conditions: in vivo.

As for `Cc1cc2cc(C(=O)N3CCN(C)CC3)c(=O)oc2c2ccccc12`, the Time in the data set on Mus musculus [1] was 8.1 s. Further, the Activity is 10% in the data set with Mus musculus [2], 20% in the data set on Mus musculus [3], 55% with Mus musculus [4] and 17% in the data set on Mus musculus [5].
For the compound `CCCNC(=O)c1cc2cc(C)c3ccccc3c2oc1=O`, in the data set with Mus musculus [1], the Time stood at 10.2 s. The Activity is given as 10% with Mus musculus [2], 20% in the data set on Mus musculus [3], 55% in the data set with Mus musculus [4] and 17% in the data set on Mus musculus [5].
Take `CCNC(=O)c1cc2cc(/C=C/C(=O)c3ccc(C)cc3)c3ccccc3c2oc1=O`: the Time with Mus musculus [1] came to 11.1 s. Further, the Activity is 40% in the data set with Mus musculus [2], 44% in the data set with Mus musculus [3], 100% in the data set on Mus musculus [4] and 33% in the data set on Mus musculus [5].
Turning to `CCNC(=O)c1cc2cc(C)c3ccccc3c2oc1=O`, in the data set with Mus musculus [1], the Time amounted to 10.2 s. In addition, the Activity came to 30% in the data set on Mus musculus [2], 30% in the data set with Mus musculus [3], 68% in the data set with Mus musculus [4] and 45% with Mus musculus [5].
For the compound `Cc1cc2cc(C(=O)NCCCN3CCOCC3)c(=O)oc2c2ccccc12`, in the data set with Mus musculus [1], the Time is 10.2 s. Further, the Activity with Mus musculus [2] was determined as 30%; in the data set on Mus musculus [3] it was 33%; in the data set on Mus musculus [4], 91%; in the data set on Mus musculus [5], 50%.
For `Cc1ccc(NC(=O)c2cc3cc(/C=C/C(=O)c4ccc(C)cc4)c4ccccc4c3oc2=O)cc1` the same measures were 9.5 s, 40%, 44%, 109% and 83%.
The corresponding values for `Cc1ccc(C(=O)/C=C/c2cc3cc(C(=O)N(C)C)c(=O)oc3c3ccccc23)cc1` are 10.5 s, 30%, 33%, 82% and 59%.
The corresponding values for `CNC(=O)c1cc2cc(/C=C/C(=O)c3ccc(C)cc3)c3ccccc3c2oc1=O` are 9.9 s, 20%, 22%, 55% and 17%.
`Cc1cc2cc(C(=O)N3CCOCC3)c(=O)oc2c2ccccc12`: the Time in the data set on Mus musculus [1] is 11.6 s. Moreover, the Activity in the data set on Mus musculus [2] was 20%; in the data set with Mus musculus [3], 33%; with Mus musculus [4] it was 100%; in the data set on Mus musculus [5], 33%.
For `Cc1cc2cc(C(=O)NC3CCCCC3)c(=O)oc2c2ccccc12`, in the data set with Mus musculus [1], the Time was 10.2 s. For the same compound, the Activity in the data set with Mus musculus [2] turned out to be 35%; with Mus musculus [3], 40%; in the data set on Mus musculus [4], 82%; in the data set with Mus musculus [5], 53%.
Consider `CC(=O)Oc1ccccc1C(=O)O` [ASPIRIN], for which the values for the Activity in the data set with Mus musculus [2] and in the data set with Mus musculus [5] were 37% and 100%, respectively.
In the case of `Cc1cc2cc(C(=O)N3CCCCC3)c(=O)oc2c2ccccc12`, in the data set on Mus musculus [1], the Time was 9.4 s. Also, the Activity with Mus musculus [2] is reported as 20%; in the data set with Mus musculus [3], 29%; in the data set with Mus musculus [4], 91%; in the data set on Mus musculus [5] it was 59%.
As to `Cc1ccc(C(=O)/C=C/c2cc3cc(C(=O)N4CCN(C)CC4)c(=O)oc3c3ccccc23)cc1`, the Time in the data set with Mus musculus [1] amounted to 8.7 s. The Activity with Mus musculus [2] turned out to be 20%; in the data set on Mus musculus [3] it was 22%; with Mus musculus [4], 36%; in the data set with Mus musculus [5] it was 34%.
For `CCCNC(=O)c1cc2cc(/C=C/C(=O)c3ccc(C)cc3)c3ccccc3c2oc1=O` the same measures were 10.3 s, 40%, 33%, 127% and 100%.
The corresponding values for `Cc1ccc(C(=O)/C=C/c2cc3cc(C(=O)NC4CCCCC4)c(=O)oc3c3ccccc23)cc1` are 10.6 s, 40%, 44%, 109% and 84%.
For `Cc1ccc(NC(=O)c2cc3cc(C)c4ccccc4c3oc2=O)cc1` the same measures were 9.3 s, 30%, 40%, 63% and 58%.
As to `CC(=O)CC(c1ccccc1)c1c(O)c2ccccc2oc1=O` (stereo not given) [WARFARIN], in the data set with Mus musculus [1], the Time was determined as 116 s. In addition, the results for the Activity in the data set on Mus musculus [3] and with Mus musculus [4] were 50% and 46%, respectively.
Take `CNC(=O)c1cc2cc(C)c3ccccc3c2oc1=O`: the Time in the data set on Mus musculus [1] worked out at 8.5 s. Besides, the Activity amounted to 35% in the data set on Mus musculus [2], 40% with Mus musculus [3], 65% in the data set on Mus musculus [4] and 48% with Mus musculus [5].
For `Cc1cc2cc(C(=O)N(C)C)c(=O)oc2c2ccccc12` the same measures were 10 s, 20%, 40%, 100% and 58%.
As to `Cc1ccc(C(=O)/C=C/c2cc3cc(C(=O)N4CCCCC4)c(=O)oc3c3ccccc23)cc1`, the Time in the data set with Mus musculus [1] was determined as 9.7 s. Besides, the Activity came out at 30% in the data set on Mus musculus [2], 42% with Mus musculus [3], 45% with Mus musculus [4] and 25% with Mus musculus [5].
`Cc1ccc(C(=O)/C=C/c2cc3cc(C(=O)NCCCN4CCOCC4)c(=O)oc3c3ccccc23)cc1`: the Time in the data set on Mus musculus [1] is 11 s. In addition, the Activity in the data set with Mus musculus [2] is recorded as 30%; with Mus musculus [3], 33%; with Mus musculus [4] it was 45%; with Mus musculus [5], 25%.
The corresponding values for `Cc1ccc(C(=O)/C=C/c2cc3cc(C(=O)N4CCOCC4)c(=O)oc3c3ccccc23)cc1` are 11.4 s, 20%, 30%, 55% and 17%.
